Laboratory results taken from the supplement of paper PMC10307832.

Tests used:
Assay in all cases: relative viability (nuclei count vs DMSO), 5 days (fraction); higher = more cells survive
KN-93 + Bortezomib = compound: CN(C/C=C/C1=CC=C(C=C1)Cl)CC2=CC=CC=C2N(CCO)S(=O)(=O)C3=CC=C(C=C3)OC [KN-93] + CC(C)C[C@H](NC(=O)[C@H](Cc1ccccc1)NC(=O)c1cnccn1)B(O)O [Bortezomib] (partner 0.002 µM)
Summary of the method: (§1)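 Relative viability divides the nuclei count in treated wells by that in vehicle wells. Lung cancer cell lines were seeded in 1536-well plates, dosed by pin tool the next day, and fixed and stained after 5 days in one step with final 0.05% Triton X-100, 1% formaldehyde and 1 ug/ml Hoechst. Dosing was a single drug or a fixed anchor-drug dose plus five library-drug doses (not always all listed) in √10 steps, and values are medians of duplicate plates imaged at 4×.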

KN-93 + Decitabine = compound: CN(C/C=C/C1=CC=C(C=C1)Cl)CC2=CC=CC=C2N(CCO)S(=O)(=O)C3=CC=C(C=C3)OC [KN-93] + Nc1ncn([C@H]2C[C@H](O)[C@@H](CO)O2)c(=O)n1 [Decitabine] (partner 2 µM)
Summary of the method: as §1

KN-93 + AZD7762 = compound: CN(C/C=C/C1=CC=C(C=C1)Cl)CC2=CC=CC=C2N(CCO)S(=O)(=O)C3=CC=C(C=C3)OC [KN-93] + NC(=O)Nc1cc(-c2cccc(F)c2)sc1C(=O)N[C@H]1CCCNC1 [AZD7762] (partner 0.2 µM)
Summary of the method: as §1

KN-93 + Phenformin = compound: CN(C/C=C/C1=CC=C(C=C1)Cl)CC2=CC=CC=C2N(CCO)S(=O)(=O)C3=CC=C(C=C3)OC [KN-93] + N=C(N)NC(=N)NCCc1ccccc1 [Phenformin] (partner 250 µM)
Summary of the method: as §1

KN-93 + Linsitinib = compound: CN(C/C=C/C1=CC=C(C=C1)Cl)CC2=CC=CC=C2N(CCO)S(=O)(=O)C3=CC=C(C=C3)OC [KN-93] + C[C@]1(O)C[C@@H](c2nc(-c3ccc4ccc(-c5ccccc5)nc4c3)c3c(N)nccn32)C1 [Linsitinib] (partner 1 µM)
Summary of the method: as §1

Cell Line	relative viability (KN-93 + Bortezomib; first compound 0.08 µM)	relative viability (KN-93 + Bortezomib; first compound 0.253 µM)	relative viability (KN-93 + Bortezomib; first compound 2.53 µM)	relative viability (KN-93 + Bortezomib; first compound 8 µM)	relative viability (KN-93 + Decitabine; first compound 0.08 µM)	relative viability (KN-93 + Decitabine; first compound 0.253 µM)	relative viability (KN-93 + Decitabine; first compound 2.53 µM)	relative viability (KN-93 + Decitabine; first compound 8 µM)	relative viability (KN-93 + AZD7762; first compound 0.08 µM)	relative viability (KN-93 + AZD7762; first compound 0.253 µM)	relative viability (KN-93 + AZD7762; first compound 2.53 µM)	relative viability (KN-93 + AZD7762; first compound 8 µM)	relative viability (KN-93 + Phenformin; first compound 0.08 µM)	relative viability (KN-93 + Phenformin; first compound 0.253 µM)	relative viability (KN-93 + Phenformin; first compound 2.53 µM)	relative viability (KN-93 + Phenformin; first compound 8 µM)	relative viability (KN-93 + Linsitinib; first compound 0.08 µM)	relative viability (KN-93 + Linsitinib; first compound 0.253 µM)	relative viability (KN-93 + Linsitinib; first compound 2.53 µM)	relative viability (KN-93 + Linsitinib; first compound 8 µM)
201T	1.11	1.15	1.07	0.554	0.866	0.887	0.758	0.583	0.616	0.707	0.658	0.619	0.47	0.424	0.51	0.452	1.04	0.968	0.995	0.837
A549	–	–	–	–	–	0.285	0.313	0.294	–	–	–	–	0.183	0.347	0.922	0.132	0.519	0.722	0.746	0.476
A-427	1.04	0.99	0.982	0.852	0.579	0.511	0.546	0.496	0.657	0.771	1.03	0.548	0.322	0.35	0.278	0.229	1.1	1.2	1.13	0.965
ABC-1	0.322	0.247	0.287	0.26	1.37	1	1.17	0.411	0.924	1.05	0.869	0.38	0.248	0.242	0.248	0.216	0.889	0.717	0.727	0.362
BEN	–	0.895	1.01	0.471	0.74	0.758	0.926	0.537	0.771	0.661	0.678	0.442	0.239	0.26	0.295	0.275	–	1.31	1.03	0.786
CAL-12T	1.02	1.09	0.993	0.803	–	–	–	–	0.56	0.628	0.667	0.399	0.557	0.474	0.563	0.407	0.926	0.766	0.694	0.729
COR-L23	0.653	1.5	1.21	0.573	0.459	0.409	0.495	0.35	–	–	–	–	0.432	0.569	0.583	0.387	0.683	1.07	0.887	0.577
COR-L 105	0.798	0.836	0.914	0.378	0.635	0.657	0.667	0.634	–	–	–	–	0.559	0.443	0.517	0.366	0.811	0.878	1.15	0.784
ChaGo-K-1	1.33	1.18	1.15	0.536	0.559	0.528	0.541	0.457	0.797	0.928	0.934	0.713	0.456	0.56	0.466	0.453	–	–	–	–
EKVX	0.81	1.33	1.26	0.389	0.332	0.289	0.342	0.319	0.623	0.515	0.73	0.354	0.23	0.224	0.239	0.203	0.959	0.872	1.03	0.748
EMC-BAC-2	0.908	1.12	1.12	0.58	0.996	0.98	0.969	0.693	1.22	1.28	1.2	0.872	0.501	0.596	0.548	0.458	0.821	1	0.878	0.775
EPLC-272H	0.863	1.39	0.982	0.752	0.372	0.368	0.383	0.309	0.195	0.2	0.527	0.347	0.276	0.299	0.276	0.25	1.15	1.27	1.21	0.871
H3255	0.906	0.865	0.91	0.578	0.603	0.728	0.54	0.474	0.878	0.894	0.989	0.558	0.383	0.339	0.401	0.362	0.802	1.09	1.08	0.584
HARA	1.01	1.08	1.24	0.836	0.572	0.554	0.641	0.506	0.303	0.392	0.193	0.271	0.329	0.477	0.543	0.148	0.84	1.11	0.923	0.527
IA-LM	0.738	0.875	0.991	0.481	–	–	–	–	–	–	–	–	–	–	–	–	0.608	0.495	0.463	0.827
